According to ChEMBL document CHEMBL5518215, “Unlocking Antibacterial Potential: Key-Site-Based Regulation of Antibacterial Spectrum of Peptides” (J Med Chem, 2024):
Activity calls are given as the source filed them. The calls are words filed in the database; no cut-off is given here.

Columns and labels:
Escherichia coli [1] = assay: Antimicrobial activity against Escherichia coli 25922 assessed as absence bacterial growth measured after 18 to 24 hrs incubation by NCCLS method; format: functional; details: time 18-24 hrs
Acinetobacter baumannii = assay: Antimicrobial activity against Acinetobacter baumannii 1.6769 assessed as absence bacterial growth measured after 18 to 24 hrs incubation by NCCLS method; format: functional; details: time 18-24 hrs
Escherichia coli [2] = assay: Antibacterial activity against Escherichia coli 25922 assessed as absence bacterial growth measured after 4 hrs treated with H2O2; format: functional
Escherichia coli [3] = assay: Induction of morphological changes in Escherichia coli 25922 assessed as membrane damage and cytoplasmic leakage by using transmission electron microscopy; format: functional, organism-based
Escherichia coli [4] = assay: Antimicrobial activity against Escherichia coli K88 assessed as bacterial killing measured after 16 hrs incubation; format: functional
Escherichia coli [5] = assay: Antibacterial activity against Escherichia coli 25922 assessed as absence bacterial growth measured after 18 to 24 hrs incubation at pH 6 by NCCLS method; format: functional; details: time 18-24 hrs
Escherichia coli [6] = assay: Antimicrobial activity against Escherichia coli 25922 assessed as absence bacterial growth measured after 18 to 24 hrs incubation in presence of NH4Cl by NCCLS method; format: functional; details: time 18-24 hrs
Escherichia coli [7] = assay: Induction of morphological changes in Escherichia coli 25922 assessed as changes in cell surface by measuring signs of disruption by using scanning electron microscopy; format: functional, organism-based
Staphylococcus aureus [8] = assay: Antimicrobial activity against Staphylococcus aureus 29213 assessed as absence bacterial growth measured after 18 to 24 hrs incubation by NCCLS method; format: functional; details: time 18-24 hrs
Staphylococcus aureus [9] = assay: Induction of morphological changes in Staphylococcus aureus 29213 assessed as loose distribution of cellular contents by using transmission electron microscopy; format: functional, organism-based
Escherichia coli [10] = assay: Antimicrobial activity against Escherichia coli 25922 assessed as absence bacterial growth measured after 18 to 24 hrs incubation in presence of ZnCl2 by NCCLS method; format: functional; details: time 18-24 hrs
Staphylococcus aureus [11] = assay: Antimicrobial activity against Staphylococcus aureus 29213 assessed as absence bacterial growth measured after 18 to 24 hrs incubation by NCCLS m; format: functional; details: time 18-24 hrs
Staphylococcus aureus [12] = assay: Outer membrane permeabilization/cell wall in Staphylococcus aureus 29213 assessed as fluorescence intensity of NPN measured at 2 to 128 uM after 1 hr by spectrophotometry; format: functional, organism-based; details: dose 2-128 µM
Escherichia coli [13] = assay: Antimicrobial activity against Escherichia coli K88 assessed as absence bacterial growth measured after 18 to 24 hrs incubation by NCCLS method; format: functional; details: time 18-24 hrs
Escherichia coli [14] = assay: Antibacterial activity against Escherichia coli 25922 assessed as absence bacterial growth measured after 8 hrs treated with H2O2; format: functional
Staphylococcus aureus [15] = assay: Antimicrobial activity against Methicillin-resistant Staphylococcus aureus 43300 assessed as absence bacterial growth measured after 18 to 24 hrs incubation by NCCLS method; format: functional; details: time 18-24 hrs
Lipoteichoic acid = assay: Binding affinity to Staphylococcus aureus LTA assessed as fluorescence intensity measured after 1 hr by spectrophotometry; details: dose 1-64 µM
DNA = assay: Binding affinity to DNA in Escherichia coli 25922 incubated for 1 hr by electrophoresis; format: nucleic-acid assay
Escherichia coli [16] = assay: Antibacterial activity against Escherichia coli 25922 assessed as bactericidal rate by measuring reduction in bacterial count at 1 times MBC concentration measured at 15 secs by time-kill kinetic assay; format: functional; details: time 15 sec; 15 s
[17] = Cytotoxicity against porcine IPEC-J2 cells assessed as cell survival rate at 64 uM measured after 8 hrs by MTT assay relative to control; format: toxicity, cell-based, Sus scrofa; details: pig, read-out: Activity
Escherichia coli [18] = assay: Antimicrobial activity against Escherichia coli 25922 assessed as absence bacterial growth measured after 18 to 24 hrs incubation in presence of 25% serum by NCCLS method; format: functional; details: time 18-24 hrs
Lipopolysaccharide (LPS) = assay: Binding affinity to Escherichia coli O111:B4 LPS assessed as fluorescence intensity measured after 1 hr by spectrophotometry; format: subcellular; details: dose 2-16 µM
Cell membrane [19] = assay: Induction of membrane disruption in Staphylococcus aureus 29213 assessed as increase in extracellular ATP level at 4 to 32 uM measured after 1 hr; format: cell membranes; details: dose 4-32 µM
Salmonella typhimurium [20] = assay: Antimicrobial activity against Salmonella typhimurium 14028 assessed as bacterial killing measured after 16 hrs incubation; format: functional, Salmonella enterica subsp. enterica serovar Typhimurium; details: Salmonella enterica
Escherichia coli [21] = assay: Induction of ROS production in mid-log phase Escherichia coli 25922 assessed as fluorescence intensity at 1 to 64 uM by DCFH-DA assay; format: functional, organism-based; details: dose 1-64 µM
Salmonella typhimurium [22] = assay: Antimicrobial activity against Salmonella typhimurium 14028 assessed as absence bacterial growth measured after 18 to 24 hrs incubation by NCCLS method; format: functional, Salmonella enterica subsp. enterica serovar Typhimurium; details: Salmonella enterica, time 18-24 hrs
Staphylococcus aureus [23] = assay: Antimicrobial activity against Staphylococcus aureus 25923 assessed as bacterial killing measured after 16 hrs incubation; format: functional
Staphylococcus aureus [24] = assay: Antimicrobial activity against Methicillin-resistant Staphylococcus aureus 43300 assessed as bacterial killing measured after 16 hrs incubation; format: functional
Cell membrane [25] = assay: Induction of cytoplasmic membrane disruption in Staphylococcus aureus 29213 assessed as increase in fluorescence intensity at 2 to 64 uM by DiSC3-5 probe based assay; format: cell membranes; details: dose 2-64 µM, time <= 30.0 min, TDE = time-dependent effect
Enterococcus faecalis = assay: Antimicrobial activity against Enterococcus faecalis 29212 assessed as absence bacterial growth measured after 18 to 24 hrs incubation by NCCLS method; format: functional; details: time 18-24 hrs
Escherichia coli [26] = assay: Antibacterial activity against Escherichia coli 25922 assessed as absence bacterial growth measured after 18 to 24 hrs incubation at pH 8 by NCCLS method; format: functional; details: time 18-24 hrs
Cell membrane [27] = assay: Induction of cytoplasmic membrane disruption in Staphylococcus aureus 29213 assessed as increase in fluorescence intensity measured upto 30 mins by DiSC3-5 probe based assay; format: cell membranes; details: dose 2-64 µM
Escherichia coli [28] = assay: Antimicrobial activity against Escherichia coli 25922 assessed as absence bacterial growth measured after 18 to 24 hrs incubation in presence of FeCl3 by NCCLS method; format: functional; details: time 18-24 hrs

Substance: H-GKLWLKAGKLWLKGGKLWLKG-NH2
- MIC (Escherichia coli [1]): 2 µM
- MIC (Acinetobacter baumannii): 2 µM
- MIC (Escherichia coli [2]): 2 µM
- Activity (Escherichia coli [3]): Active
- MBC (Escherichia coli [4]): 0.5 µM
- MIC (Escherichia coli [5]): 2 µM
- MIC (Escherichia coli [6]): 2 µM
- Activity (Escherichia coli [7]): Active
- MIC (Staphylococcus aureus [8]): 4 µM
- Activity (Staphylococcus aureus [9]): Active
- MIC (Escherichia coli [10]): 2 µM
- MIC (Staphylococcus aureus [11]): 4 µM
- permeability (Staphylococcus aureus [12]): Permeable
- MIC (Escherichia coli [13]): 0.5 µM
- MIC (Escherichia coli [14]): 2 µM
- MIC (Staphylococcus aureus [15]): 4 µM
- Activity (Lipoteichoic acid): Dose-Dependent Effect
- Activity (DNA): Active
- inhibition (INH) (Escherichia coli [16]): 99.99%
- viability at 8 h, 64 µM [17]: > 80%
- MIC (Escherichia coli [18]): 32 µM
- Activity (Lipopolysaccharide (LPS)): Dose-Dependent Effect
- Activity (Cell membrane [19]): Active
- MBC (Salmonella typhimurium [20]): 16 µM
- Activity (Escherichia coli [21]): Active
- MIC (Salmonella typhimurium [22]): 2 µM
- MBC (Staphylococcus aureus [23]): 4 µM
- MBC (Staphylococcus aureus [24]): 4 µM
- Activity (Cell membrane [25]): Tde
- MIC (Enterococcus faecalis): 4 µM
- MIC (Escherichia coli [26]): 2 µM
- Activity (Cell membrane [27]): Dose-Dependent Effect
- MIC (Escherichia coli [28]): 2 µM
